# Experimental data as given in patent publication US20180153952A1, “COMPOSITIONS AND METHODS FOR TREATING POST OPERATIVE COGNITIVE DYSFUNCTION AND NEUROIN[…] ANNEXIN A1 (ANXA1) PEPTIDES” (Duke University, priority 2016, published 2018).
# “Also recorded” adds a separate entry of the source.
# Legend:
# [1] = system: cerebral microglia activation; experiment: Microglia activation after orthopedic surgery (F4/80 immunostaining, stereological analysis); assay type: in vivo; conditions: mice after orthopedic surgery, ANXA1sp 1 mg/kg 1 hr before surgery, 24 hr post-surgery, F4/80 positive cells, vs untreated animals
# Method: Male C57BL/6 mice (12 weeks) were subjected to orthopedic surgery and treated with ANXA1sp (1 mg/kg) 1 hr before surgery. At 24 hr of post-surgery, brain levels of microglia activation was determined by immunostaining with a biomarker F4/80. Stereological analysis of F4/80 positive cells was shown in the bar graph. N=5 (Naïve), 10 (Surgery), and 4 (ANXA1sp). Data are presented as mean+SD. **P<0.01 vs. Naïve; #P<0.05 vs. Surgery. One-way ANOVA with Multiple Comparisons. (FIG. 13).
# SIRT3 = experiment: Hippocampal mitochondrial SIRT3 expression after orthopedic surgery; assay type: in vivo; conditions: mice after orthopedic surgery, time-dependent
# ANXA1 = experiment: Hippocampal/brain ANXA1 levels after orthopedic surgery; assay type: in vivo, mice
# Text: Surgery reduced levels of endogenous ANXA1 in the brain at 24 hr (FIG. 25A, FIG. 25B for quantification). […] N=3-4; **P<0.01, ***P<0.001. One-way ANOVA with Multiple Comparisons.
# MPO = experiment: Plasma/systemic MPO levels after orthopedic surgery; assay type: in vivo, mice
# Text: (§1) Systemic cytokines, including IL-6, are found elevated in patients developing delirium and POCD and may serve as potential biomarkers. […] N=4-5 (adult), N=1-5 (aged); **P<0.01. Two-way ANOVA with Multiple Comparisons.
# NLRP3 inflammasome = experiment: NLRP3 expression/inflammasome activation in hippocampus after orthopedic surgery (Western blot); assay type: in vivo, mice; conditions: for NLRP3 activation: ANXA1sp 1 mg/kg 30 min before surgery
# Method: (§2) Representative Western Blot images in adult (12 weeks-old) and aged (20 months-old) C57BL/6 mice for NLRP3 (FIG. 18A), Caspase-1 (FIG. 18C), and IL1β (FIG. 18E) (three key components of the inflammasome complex) and quantification. […] Data are presented as mean±SD. […] One-way ANOVA with Multiple Comparisons.
# Male C57BL/6 mice received ANXA1sp (1 mg/kg) 30 min before surgery. […] Data are presented as mean±SD. […] Two-way ANOVA with Multiple Comparisons.
# Caspase-1 = Caspase-1 activation in hippocampus after orthopedic surgery (Western blot); assay type: in vivo, mice
# Method: as §2
# (§3) Male C57BL/6 mice received ANXA1sp (1 mg/kg) 30 min before surgery. Representative blots of Caspase-1 activation and IL1β secretion. […] Data are presented as mean±SD. N=4-5; *P<0.05, **P<0.01, ***P<0.001. Two-way ANOVA with Multiple Comparisons.
# IL-1β = IL-1β secretion in hippocampus after orthopedic surgery (Western blot); assay type: in vivo, mice
# Method: as §2, §3
# memory function = experiment: "What-when-where" task of object recognition memory after orthopedic surgery; assay type: in vivo, mice
# Text: After orthopedic surgery mice have reduced preferences for the replacement of objects (what), and for the original location of the displaced object (where); but they show a […] preference the order of presentation (when). […] Data are presented as mean±SD. N=10. *P<0.05 and **P<0.01 vs. surgery+vehicle using MANOVA. (FIG. 17).
# [2] = system: OXPHOS mitochondrial electron transport chain complexes; experiment: Hippocampal total OXPHOS (Western blot) after orthopedic surgery; assay type: in vivo; conditions: mice (13 weeks) after orthopedic surgery
# Method: (§4) Male C57BL/6 mice (13 weeks) were subjected to orthopedic surgery. Naïve animals (no surgery at 0 hour) were used as baseline-control. At 3, 6, and 24 hours of post-surgery, the total OXPHOS in hippocampus was determined by Western blot (FIG. 23A) and (FIG. 23B). Time-dependent increased hippocampal ATP production were determined by ELISA (FIG. 23C). […] Data are presented as mean±SD. N=4; **P<0.01, ***P<0.001. One-way ANOVA with Multiple Comparisons.
# [3] = system: hippocampal ATP production; experiment: Hippocampal ATP production (ELISA) after orthopedic surgery; assay type: in vivo; conditions: mice (13 weeks) after orthopedic surgery
# Method: as §4
# citrate synthetase (CS) = experiment: Hippocampus citrate synthetase (CS, Western blot) after orthopedic surgery; assay type: in vivo; conditions: mice (13 weeks) after orthopedic surgery
# Method: Male C57BL/6 mice (13 weeks) were subjected to orthopedic surgery while naïve animals were as baseline-control. At 3, 6, and 24 hours of post-surgery, the hippocampus CS was determined by Western blot (FIG. 24A) and (FIG. 24B). […] Data are presented as mean±SD. N=4; **P<0.01, ***P<0.001, ****P<0.0001. One-way ANOVA with Multiple Comparisons.
# IL-6 = experiment: Systemic IL-6 after orthopedic surgery; assay type: in vivo; conditions: mice after orthopedic surgery
# Text: as §1
# [4] = brain (hippocampus) of mice after orthopedic surgery
substance,measurement,setting,value
Ac-Gln-Ala-Trp [ANXA1sp],cerebral microglia activation,[1],significantly attenuated
same,hippocampal mitochondrial SIRT3 expression/activation,SIRT3,significantly increases/activates; also recorded: significantly higher expression
same,levels of ANXA-1 in the brain,"ANXA1; 24 hr after surgery, 1 mg/kg ANXA1sp",significantly increase
same,hippocampal ANXA1 levels,ANXA1; mice after orthopedic surgery,significantly increased
same,plasma levels of meloperoxidase (MPO),"MPO; mice after orthopedic surgery, time-dependent",reduced; also recorded: significantly decreased
same,systemic levels of MPO,"MPO; mice, 24 hr after orthopedic surgery, listed as ANXA-1sp",reduced
same,NLRP3 activation,"NLRP3 inflammasome; adult and aged mice, 24 hr after surgery",significantly reduced
same,NLRP3 activation,"NLRP3 inflammasome; aged mice, 6 hr after surgery",significantly reduced
same,NLRP3 expression or NLRP3 inflammasome activation,NLRP3 inflammasome; [4],inhibits; also recorded: significant inhibition; also recorded: reduces
same,levels of Caspase-1,"Caspase-1; adult and aged mice after surgery, ANXA1sp 1 mg/kg 30 min before surgery",significantly reduced
same,activation of caspase-1,Caspase-1; [4],significantly inhibited
same,secreted IL1β,"IL-1β; adult mice after surgery, ANXA1sp 1 mg/kg 30 min before surgery",no significance
same,activation of IL-1β,IL-1β; [4],significantly inhibited
same,memory deficits (what-when-where object recognition preference scores),"memory function; mice after orthopedic surgery, vs surgery+vehicle",significantly improves
same,exploration of the displaced/replaced object,"memory function; surgery+ANXA1sp mice, vs original anchor object and two most recently seen objects",greater exploration
same,"hippocampal total OXPHOS, particularly complex IV",[2],significantly regulated
same,hippocampal ATP production,[3],attenuated
same,"numbers of CS (citrate synthetase, biomarker of numbers of mitochondria)",citrate synthetase (CS),significantly increased
same,systemic IL-6,IL-6,significantly reduced
same,systemic IL-6,IL-6; listed as ANXA-1sp,reduced
